Measurements as given in US12226507B2, “Use of dianhydrohexitol in oral and dental care to reduce the development of bacterial strains” (ROQUETTE FRERES, priority 2017, dated 2025).

Legend:
Format in all cases: cell-based
Actinomyces oris = experiment: Bacterial growth of Actinomyces oris in the presence of polyols; conditions: aerobic conditions, FIG. 6
Procedure: (§1) The growth of these strains was then measured in the presence of isosorbide, maltitol, xylitol, allulose, sorbitol powder and dextrose monohydrate in an unrefreshed culture medium, incubated at 37° C. for 48 hours or 72 hours under aerobic or anaerobic conditions. The growths were measured by bacterial counting on solid medium. The results are expressed in Log 10 (CFU/ml). The culture media used are the Bacto Brain Heart Infusion (ref. 237500-BD (BHI)) and Difco™ Brain Heart Infusion Agar (ref. 241830-BD (BHIa)) culture media.

oral bacterial strains = experiment: Growth of the oral bacterial strains overall (summary of all strains tested)
Procedure: as §1

Actinomyces naeslundii = experiment: Bacterial growth of Actinomyces naeslundii in the presence of polyols; conditions: for bacterial population: FIG. 4 as printed
Procedure: as §1

Lactobacillus gasseri = experiment: Bacterial growth of Lactobacillus gasseri in the presence of polyols; conditions: anaerobic conditions, FIG. 3
Procedure: as §1

Streptococcus mutans [1] = experiment: Bacterial growth of Streptococcus mutans strain from a healthy tooth, in the presence of polyols, counting on solid medium; conditions: aerobic conditions, FIG. 1
Procedure: as §1

Streptococcus mutans [2] = experiment: Bacterial growth and biofilm of Streptococcus mutans strain from a decayed tooth, in the presence of polyols; conditions: FIG. 2
Procedure: as §1, with “incubated at 37° C. for 48 hours or 72 hours under aerobic or anaerobic” left out

SMILES | bacterial growth (Actinomyces oris) | growth of the bacterial strains, all cases (oral bacterial strains; all strains and conditions tested) | level of performance relative to xylitol or sorbitol (oral bacterial strains; comparison with polyols of commercial toothpastes) | bacterial growth (Actinomyces naeslundii; aerobic conditions, FIG. 5) | bacterial population from T=40 hours (Actinomyces naeslundii; aerobic conditions, from T=40 hours, FIG. 5) | kind of effect on the bacterial population (Actinomyces naeslundii; anaerobic conditions) | bacterial population (Actinomyces naeslundii; anaerobic conditions) | bacterial growth (Lactobacillus gasseri; T=24 hours) | kind of effect, populations beyond 24 hours (Lactobacillus gasseri; beyond 24 hours) | bacterial population after 24 hours (Streptococcus mutans [1]) | kind of effect on the bacterial population (Streptococcus mutans [1]) | bacterial growth (Streptococcus mutans [1]; T=24 hours) | bacterial growth (Streptococcus mutans [2]; anaerobic conditions) | biofilm formed (Streptococcus mutans [2]; anaerobic conditions, after 96 hours of incubation) | bacterial growth (Streptococcus mutans [2]; strain from a decayed tooth)
O=C(CO)C(O)C(O)C(O)CO (stereo not shown) [allulose] | slowed relative to the other polyols tested | – | – | – | – | – | – | – | – | – | – | – | – | – | –
O[C@@H]1CO[C@H]2[C@@H]1OC[C@@H]2O [isosorbide, 1,4:3,6-dianhydrosorbitol] | decreases greatly over time in the presence of isosorbide, then stabilizes after 24 hours | very significant decrease | even higher than that observed with xylitol or sorbitol | remains low relative to the other polyols | substantial decrease | bactericidal effect | falls constantly until it disappears completely | remains absent | inhibitory effect | declines slightly | bacteriostatic effect | remain absent | varies little | biofilm formed in the absence of isosorbide is much more pronounced than in the presence of isosorbide | Very slowed growth
OC[C@@H](O)[C@H](O)[C@@H](O)CO [xylitol, reference compound] | slowed relative to the other polyols tested | – | – | appears to further curb the bacterial growth than the other polyols tested | – | – | remains stable | – | – | – | – | – | – | – | –
